The text below walks through data of patent US12344623B2, “Thiazolopyridine derivatives as adenosine receptor antagonists” (Merck Patent GmbH, priority 2019, dated 2025).

Common to all, as to assay type: cell-based
The subject of test [1] is mouse Pan T cells. Description: mTcell assay, IL-2, rescue of cytokine secretion, agonist NECA. The following applies: 24 h. The source says: (§1) Adenosine (Ado) in tumor microenvironment can inhibit T cell activity by signaling through A2A receptors and suppress cytokine secretion by T cells. […] Potential A2A antagonists or A2A/A2B dual antagonists can rescue T cells from this inhibition. Herein, we describe the in vitro system we established using Pan T cells from mouse spleens to screen potential A2A antagonists or A2A/A2B dual antagonists for their activity. The method described involves the use of CD3/CD28 pre-coated beads to stimulate Pan T cells purified from mouse splenocytes, combined with the addition of A2A agonist along with potential A2A or A2A/A2B dual antagonists to evaluate potentiation of T cell cytokine production.
Briefly, mouse Pan T cells are purified from spleens of BALB/c mice using Pan T cell isolation kit Mouse II (MACS Miltenyi biotech Cat # Order no. 130-095-130) according to manufacturer's protocol. The purified T cells are seeded in Nunc™ 96-Well Polystyrene Round Bottom Microwell Plates in RPMI medium with 10% heat inactivated fetal bovine serum. The cells are rested at 37° C. for 1 h before activating with CD3/CD28 pre-coated beads (Dynabeads™ Mouse T-Activator CD3/CD28; Cat #11456D). After 30 min the cells are treated with varying doses of test antagonist(s). […] After 24 h incubation IL-2 levels in the supernatants are measured by ELISAs according to manufacturer's protocol (R&D systems Cat #DY402 (IL-2)). Once the concentrations are calculated, the difference of cytokine concentration of DMSO control and agonist alone control is calculated and the percentage of rescue by each concentration of antagonist is calculated by using Microsoft Excel. These percentages of cytokine rescue in a dose dependent manner of antagonist is plotted in GraphPad Prism software and IC50 is calculated.

In the next test the target is T1, human A3 receptor (Homo sapiens, UniProt P0DMS8).
T1 construct: expressed in transfected cells; host or cells: CHO
T1 sequence (P0DMS8 1-318): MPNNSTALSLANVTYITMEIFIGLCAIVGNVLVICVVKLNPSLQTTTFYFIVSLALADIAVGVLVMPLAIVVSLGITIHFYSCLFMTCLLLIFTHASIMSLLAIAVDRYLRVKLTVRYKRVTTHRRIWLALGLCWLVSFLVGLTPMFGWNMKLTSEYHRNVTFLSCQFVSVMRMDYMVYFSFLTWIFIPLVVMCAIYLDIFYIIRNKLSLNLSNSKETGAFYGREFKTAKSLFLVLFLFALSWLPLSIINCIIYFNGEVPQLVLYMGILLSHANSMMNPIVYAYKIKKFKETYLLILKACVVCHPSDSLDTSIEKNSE
As to the kind of experiment: Functional A3 receptor activity, recombinant CHO cells, cAMP (HTRF), forskolin, agonist IB-MECA. The conditions noted are these: recombinant CHO cells, forskolin, agonist IB-MECA; read-out: Functional A3 receptor activity, CHO, cAMP, IC50. The method, boiled down:
(§2)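 Gi-coupled readout: CHO cells expressing human A1 or A3 receptor were treated with forskolin, test compound and agonist (CPA for A1, IB-MECA for A3) for 30 min; cellular cAMP was then measured by HTRF. Data were normalized to inhibitor and DMSO controls and curve-fitted.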
For orientation: Time-resolved FRET reads energy transfer from a long-lived donor to a nearby acceptor.

Another test has as its target T2, human A1 receptor (Homo sapiens, UniProt P30542).
T2 construct: expressed in transfected cells; host or cells: CHO
T2 sequence (P30542 1-326): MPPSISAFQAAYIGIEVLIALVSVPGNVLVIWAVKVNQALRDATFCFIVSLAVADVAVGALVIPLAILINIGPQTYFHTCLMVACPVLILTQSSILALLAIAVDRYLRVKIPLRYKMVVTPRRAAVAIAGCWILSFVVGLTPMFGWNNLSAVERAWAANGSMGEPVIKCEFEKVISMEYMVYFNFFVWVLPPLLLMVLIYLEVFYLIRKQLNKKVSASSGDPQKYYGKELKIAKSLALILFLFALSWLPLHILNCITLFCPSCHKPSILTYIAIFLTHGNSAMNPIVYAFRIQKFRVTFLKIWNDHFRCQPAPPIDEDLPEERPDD
As to the kind of experiment: Functional A1 receptor activity, recombinant CHO cells, cAMP (HTRF), forskolin, agonist CPA. The following applies: recombinant CHO cells, forskolin, agonist CPA; read-out: Functional A1 receptor activity, CHO, cAMP, IC50. The gist of the method:
as §2

A further test has as its target T3, human A2B receptor (Homo sapiens, UniProt P29275).
T3 construct: expressed in transfected cells; host or cells: HEK293
T3 sequence (P29275 1-332): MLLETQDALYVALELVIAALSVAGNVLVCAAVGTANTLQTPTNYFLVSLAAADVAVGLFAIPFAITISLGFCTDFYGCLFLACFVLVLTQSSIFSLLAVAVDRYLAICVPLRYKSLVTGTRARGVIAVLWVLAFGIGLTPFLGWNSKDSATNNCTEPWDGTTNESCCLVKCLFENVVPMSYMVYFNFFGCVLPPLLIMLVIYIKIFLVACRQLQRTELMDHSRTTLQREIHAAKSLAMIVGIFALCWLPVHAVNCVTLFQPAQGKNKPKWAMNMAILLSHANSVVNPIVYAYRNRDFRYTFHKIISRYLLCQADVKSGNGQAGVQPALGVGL
Description: Functional A2B receptor activity, recombinant HEK293 cells, cAMP (HTRF), agonist NECA. The following applies: read-out: Functional A2B receptor activity, HEK293, cAMP, IC50. The method, boiled down:
(§3)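 Forskolin, test compounds and agonist were added together to the cells and incubated for 30 min. Cellular cAMP was then quantified by HTRF. Raw signals were normalized to an inhibitor control and a neutral DMSO control, and the normalized data were curve-fitted.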

The subject of the next test is human T cells. Description: hTcell data, IL-2 (human T cells, IL-2 readout; method not given). The conditions noted are these: compounds of the present invention.
Test [2] addresses T4, human A2A receptor (Homo sapiens, UniProt P29274). As to the kind of experiment: Functional A2A receptor activity, recombinant HEK293 cells, cAMP (HTRF), agonist NECA. The following applies: read-out: Functional A2A receptor activity, HEK293, cAMP, IC50. More on the design: expressed in transfected cells; host or cells: HEK293. The method, boiled down: as §3
Test [3] concerns the target T4, human A2A receptor. As to the kind of experiment: Human T cells, endogenous A2A receptor, cAMP, agonist NECA. The conditions noted are these: read-out: hTcell data, cAMP, IC50. The method, boiled down: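 Pan T cells isolated from fresh human blood PBMC, endogenously expressing Gs-coupled A2A, treated with compounds. Cellular cAMP measured by HTRF after 1 h; data normalized to inhibitor control and DMSO neutral control, then curve-fitted.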

For test [4], the system named is mouse Pan T cells. As to the kind of experiment: mTcell assay, cAMP, agonist NECA.
Text: as §1
Pan T-cells are isolated from black 6 mice by manual dissociation and purified using a Miltenyi Pan T-cell isolation kit. The isolated T-cells are activated in 96 well plates for 48 hours using anti-CD3/CD28 beads in T-cell proliferation media.
After 48 hours, the T-cells are pooled, counted and suspended in serum free media containing 0.1% BSA. The cells are plated at 50,000 cells per well in 10 ul of media and incubated for 2 hours at 37° C. Test compounds are dispensed into the wells at a 10-point dose response, starting at a concentration of 10 uM. […] The plates are incubated for 30 minutes at 37° C. and assayed for cAMP levels using the Cisbio cAMP Dynamic2 reagent kit by adding 10 ul of the kit reagents to each well. The plates are incubated for 1 hour at room temperature and the HTRF signal is read on an Envision plate reader. The raw data is analyzed in Genedata Screener and the resulting data is loaded into the database.

T4 sequence (P29274 whole entry): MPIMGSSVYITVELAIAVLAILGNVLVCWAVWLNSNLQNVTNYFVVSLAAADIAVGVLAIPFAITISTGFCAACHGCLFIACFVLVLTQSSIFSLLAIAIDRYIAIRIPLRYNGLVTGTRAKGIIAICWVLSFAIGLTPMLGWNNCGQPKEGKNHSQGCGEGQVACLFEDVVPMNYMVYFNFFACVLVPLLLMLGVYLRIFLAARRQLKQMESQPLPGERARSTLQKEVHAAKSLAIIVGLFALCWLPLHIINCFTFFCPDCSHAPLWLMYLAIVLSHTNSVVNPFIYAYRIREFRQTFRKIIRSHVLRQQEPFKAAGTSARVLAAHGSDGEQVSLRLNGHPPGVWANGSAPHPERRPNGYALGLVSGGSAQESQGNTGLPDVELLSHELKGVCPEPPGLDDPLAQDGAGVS

Regarding `COc1nc(F)c(N2CCOCC2)c2sc(NC(=O)N3CC[C@@]4(CCCOC4)C3)nc12` [Compound 11, (5S)-N-[6-fluoro-4-methoxy-7-(morpholin-4-yl)-[1,3]thiazolo[4,5-c]pyridin-2-yl]-7-oxa-2-azaspiro[4.5]decane-2-carboxamide], the IC50 – broadly, the concentration at which inhibition is half-maximal – was less than 100 nM with mouse Pan T cells [1] (Mus musculus, T-cell); greater than 1000 nM on human A3 receptor; greater than 1000 nM at human A1 receptor; less than 10 nM at human A2B receptor; less than 10 nM in the test on human T cells (T-cell); less than 10 nM at human A2A receptor [2]. For the same molecule, at human A2A receptor [3], the IC50 was less than 10 nM.

As for `COc1nc(F)c(C2CCOCC2)c2sc(NC(=O)N3CC[C@]4(CCOC4)C3)nc12` [Compound 38, (5S)-N-[6-fluoro-4-methoxy-7-(oxan-4-yl)-[1,3]thiazolo[4,5-c]pyridin-2-yl]-2-oxa-7-azaspiro[4.4]nonane-7-carboxamide], the IC50 with mouse Pan T cells [4] (Mus musculus, T-cell) was less than 10 nM; in the test on mouse Pan T cells [1] (Mus musculus, T-cell), less than 100 nM; on human A3 receptor, greater than 1000 nM; at human A1 receptor it was greater than 1000 nM; on human A2B receptor, less than 10 nM; on human A2A receptor [2] it was less than 10 nM. Besides, the IC50 on human A2A receptor [3] is less than 10 nM.

On to `COc1ncc(C2=CCOCC2)c2sc(NC(=O)c3ccc(C(=O)N(C)C)cc3)nc12` [Compound 61, N4-[7-(3,6-dihydro-2H-pyran-4-yl)-4-methoxy-[1,3]thiazolo[4,5-c]pyridin-2-yl]-N1,N1-dimethylbenzene-1,4-dicarboxamide], for which the IC50 with mouse Pan T cells [1] (Mus musculus, T-cell) is less than 100 nM; at human A3 receptor, greater than 1000 nM; on human A1 receptor, less than 1000 nM; at human A2B receptor, less than 10 nM; on human A2A receptor [2], less than 10 nM; on human A2A receptor [3], less than 10 nM.

`COc1nc(F)c(N2CCOCC2)c2sc(NC(=O)c3ccc(-c4nnn[nH]4)cc3)nc12` [Compound 6, N-(6-Fluoro-4-methoxy-7-morpholin-4-yl-thiazolo[4,5-c]pyridin-2-yl)-4-(1H-tetrazol-5-yl)-benzamide]: the IC50 in the test on mouse Pan T cells [4] (Mus musculus, T-cell) is less than 100 nM; on human A3 receptor it was less than 1000 nM; at human A1 receptor it was greater than 1000 nM; on human A2B receptor, less than 10 nM; in the test on human T cells (T-cell), less than 10 nM; at human A2A receptor [2] it was less than 10 nM. The IC50 on human A2A receptor [3] is less than 100 nM.

Take `COc1ncc(C2=CCOCC2)c2sc(NC(=O)N3CC[C@]4(CCCOC4)C3)nc12` [Compound 24, (R)-7-Oxa-2-aza-spiro[4.5]decane-2-carboxylic acid [7-(3,6-dihydro-2H-pyran-4-yl)-4-methoxy-thiazolo[4,5-c]pyridin-2-yl]-amide]: the IC50 in the test on mouse Pan T cells [4] (mouse Pan T cells, agonist NECA 1 uM) is less than 100 nM; at human A3 receptor, greater than 1000 nM; at human A1 receptor it was less than 1000 nM; at human A2B receptor, less than 100 nM; in the test on human T cells it was less than 10 nM; on human A2A receptor [2], less than 10 nM. Further, the concentration for half-maximal inhibition (IC50) at human A2A receptor [3] was less than 10 nM.

Regarding `COc1cccc(-c2cnc(OC)c3nc(NC(=O)N4CCC5(CCOCC5)C4)sc23)c1` [Compound 54, 8-Oxa-2-aza-spiro[4.5]decane-2-carboxylic acid [4-methoxy-7-(3-methoxy-phenyl)-thiazolo[4,5-c]pyridin-2-yl]-amide], the IC50 is less than 10 nM with mouse Pan T cells [4] (Mus musculus, T-cell); less than 100 nM in the test with mouse Pan T cells [1] (Mus musculus, T-cell); greater than 1000 nM on human A3 receptor; greater than 1000 nM on human A1 receptor; less than 10 nM at human A2B receptor; less than 10 nM at human A2A receptor [2]. Besides, the IC50 at human A2A receptor [3] is less than 10 nM.

With `COc1ncc(-c2cccs2)c2sc(NC(=O)N3CCC4(CCOCC4)C3)nc12` [Compound 47, 8-Oxa-2-aza-spiro[4.5]decane-2-carboxylic acid (4-methoxy-7-thiophen-2-yl-thiazolo[4,5-c]pyridin-2-yl)-amide], the half-maximal inhibitory concentration (IC50) was less than 100 nM with mouse Pan T cells [4] (Mus musculus, T-cell); less than 100 nM in the test with mouse Pan T cells [1] (Mus musculus, T-cell); greater than 1000 nM at human A3 receptor; greater than 1000 nM on human A1 receptor; less than 10 nM on human A2B receptor; less than 10 nM at human A2A receptor [2]. For the same molecule, the IC50 at human A2A receptor [3] was less than 10 nM.

As to `COc1ncc(C2=CCOCC2)c2sc(NC(=O)N3CCC4(CCCOC4)C3)nc12` (stereo not drawn) [Compound 15, 7-Oxa-2-aza-spiro[4.5]decane-2-carboxylic acid [7-(3,6-dihydro-2H-pyran-4-yl)-4-methoxy-thiazolo[4,5-c]pyridin-2-yl]-amide], the IC50 in the test with mouse Pan T cells [1] (mouse Pan T cells, CD3/CD28 activated, NECA 1 μM, IL-2 rescue) is less than 100 nM; on human A3 receptor, greater than 1000 nM; on human A1 receptor it was greater than 1000 nM; at human A2B receptor it was less than 10 nM; in the test with human T cells, less than 10 nM; at human A2A receptor [2] it was less than 10 nM.

Consider `COc1ncc(-c2ccccc2)c2sc(NC(=O)N3CC[C@@H](CN)C3)nc12` [Compound 3, (S)-3-Aminomethyl-pyrrolidine-1-carboxylic acid (4-methoxy-7-phenyl-thiazolo[4,5-c]pyridin-2-yl)-amide], for which the IC50 in the test with mouse Pan T cells [4] (Mus musculus, T-cell) is less than 10 nM; at human A3 receptor it was greater than 1000 nM; on human A1 receptor, less than 1000 nM; at human A2B receptor, less than 10 nM; on human A2A receptor [2], less than 10 nM; on human A2A receptor [3], less than 10 nM.

Regarding `COc1ncc(C2=CCOCC2)c2sc(NC(=O)N3CCC4(CCCNC4)C3)nc12` (stereo not drawn) [Compound 102, 2,7-Diaza-spiro[4.5]decane-2-carboxylic acid [7-(3,6-dihydro-2H-pyran-4-yl)-4-methoxy-thiazolo[4,5-c]pyridin-2-yl]-amide], the IC50 in the test with mouse Pan T cells [4] (Mus musculus, T-cell) was less than 10 nM; on human A3 receptor it was greater than 1000 nM; on human A1 receptor, greater than 1000 nM; at human A2B receptor, less than 100 nM; at human A2A receptor [2], less than 10 nM; on human A2A receptor [3], less than 10 nM.
